Test results from patent US10278942B2 (PELOTON THERAPEUTICS, INC., priority 2015, dated 2019).
Like-named read-outs stand apart in the source and are kept apart here.

How the values were obtained:
[1] = biological target: T1, HIF-2α HIS TAG-PASB Domain (Homo sapiens, UniProt Q99814); assay: HIF-2α Scintillation Proximity Assay (SPA); format: binding
T1 construct: 100 nM HIF-2α HIS TAG-PASB Domain
Summary of the method: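 IC50 values rest on percent inhibition, where the sample signal is scaled between high and low controls. Wells contain about 100 μL: compound dispensed as 2 μL of DMSO solution, 88 μL protein-probe mix and 10 μL of beads.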

786-O cells = assay: VEGF ELISA Assay; format: cell-based; settings: Homo sapiens, 786-0
Experimental: Each concentration was plated in duplicate. About 20 hours later, medium was removed by suction and each well was supplied with 180 μL of growth medium. About 20 μl freshly-made 10× compound stocks were added to each well. […] The EC50 was calculated by GraphPad Prism using the dose-response-inhibition (four parameter) equation. The cell-seeded plate was then subjected to CellTiter-Glo luminescence cell viability assay (Promega) by adding 50 μL of Celltiter Glo reagent into each well and shaking the plate for 8 minutes at 550 rpm (Thermomixer R, Eppendorf) then the luminescence signal immediately read in a plate reader (3 second delay, 0.5 second/well integration time, Synergy 2 multi Detection Microplate reader).

786-O-Hif-Luc cells = assay: Luciferase Assay (HIF responsive elements reporter)
Experimental: A pool of infected cells were then selected against 2 μg/mL of puromycin (P8833, Sigma) for 10 days followed by limited dilution to select single clones. […] Each concentration was tested in triplicate. After about 24 hours, luciferase activity was determined using ONE-Glo Luciferase Assay Reagent (E6110, Promega) following the manufacturer's recommended procedure. EC50 were calculated using Dotmatics software.

[2] = read-out: Mean Luciferase EC50 (nM), 786-O-Hif-Luc cells
[3] = read-out: Scintillation Proximity Assay IC50

T1 sequence (Q99814 240-350 limits assumed): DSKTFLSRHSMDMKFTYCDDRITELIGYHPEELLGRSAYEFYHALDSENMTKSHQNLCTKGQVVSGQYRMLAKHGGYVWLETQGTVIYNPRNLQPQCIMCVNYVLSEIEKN

Structure (SMILES)	IC50 ([1]; Scintillation Proximity Assay IC50 (nM)) [nM]	EC50 (786-O cells) [nM]	EC50 (786-O-Hif-Luc cells; [2]) [nM]	EC50 (786-O-Hif-Luc cells; read-out: Mean Luciferase EC50 (nM)) [nM]	IC50 [1, 3] [nM]
O=S1(=O)c2ccc(Oc3cc(F)cc(Cl)c3)c(Br)c2C(O)C1(F)F (stereo not drawn) [Compound 355]	< 50	50 to 249			
O=S(=O)(c1ccc(Oc2cc(F)cc(Cl)c2)c2c1[C@H](O)CC2)C(F)F [Compound 1]		250 to 1000			
C[C@@]1(O)c2c(ccc(Oc3cc(F)cc(C#N)c3)c2C#N)S(=O)(=O)C1(F)F [Compound 458]		< 50	< 50		
CS(=O)(=O)c1ccc(Oc2cc(Cl)cc(C#N)c2)c2c1[C@H](O)C(F)(F)C2 [Compound 234]		50 to 249		< 50	
N#Cc1cc(S(=O)(=O)C(F)F)ccc1Oc1cc(F)cc(Cl)c1 [Compound 133]		> 1000			250 to 1000
N#Cc1cc(F)cc(Oc2ccc(S(=N)(=O)CF)c3c2CC(F)(F)[C@H]3O)c1 (stereo partly drawn) [Compound 274]		> 1000			50 to 249
O=S(=O)(c1ccc(Oc2cc(F)cc(Cl)c2)c(Br)c1CO)C(F)(F)F [Compound 102]		250 to 1000			50 to 249
N#Cc1ccc(Oc2cc(F)cc(F)c2)c2c1[C@H](O)C(F)(F)C2 [Compound 67]		50 to 249			
O=S(=O)(c1ccc(Oc2cc(F)cc(Cl)c2)c(Br)c1Cl)C(F)(F)F [Compound 179]		> 1000			< 50
N=S(=O)(c1ccc(Oc2cc(F)cc(Cl)c2)c(Br)c1Cl)C(F)(F)F (stereo not drawn) [Compound 75]			> 1000		50 to 249
O=S(=O)(c1ccc(Oc2cc(F)cc(Cl)c2)c2c1C(O)CC2)C(F)F (stereo not drawn) [Compound 17]		50 to 249			
O=S(=O)(c1ccc(OCC2CC2)c2c1C(O)C(F)(F)C2)C(F)(F)F (stereo not drawn) [Compound 598]			50 to 249		50 to 249
Cc1nnc(/C=C/c2c(S(=O)(=O)C(F)(F)F)ccc(Oc3cc(F)cc(C#N)c3)c2C)o1 [Compound 151]			> 1000		> 1000
Cc1cc(Oc2cc(F)cc(C#N)c2)c2c(c1S(C)(=O)=O)C(O)C(F)(F)C2 (stereo not drawn) [Compound 213]			250 to 1000		250 to 1000
CCCOc1ccc(I)c2c1CC(F)(F)C2O (stereo not drawn) [Compound 682]			250 to 1000		50 to 249
O=S1(=O)CCC(Oc2ccc(S(=O)(=O)C(F)(F)F)c3c2CC(F)(F)[C@H]3O)CC1 [Compound 721]			> 1000		> 1000
NC1CS(=O)(=O)c2ccc(Oc3cc(F)cc(Cl)c3)c(C(F)F)c21 (stereo not drawn) [Compound 363]			> 1000		> 1000
O=S(=O)(c1ccc(Cc2ccccc2)c2c1C(O)C(F)(F)C2)C(F)(F)F (stereo not drawn) [Compound 511]			> 1000		250 to 1000
CS(=O)(=O)c1ccc(C(F)(F)CO)c2c1C(O)CC2 (stereo not drawn) [Compound 554]			> 1000		50 to 249
Cc1c(S(C)(=O)=O)ccc(Oc2cc(F)cc(F)c2)c1C#N [Compound 52]			250 to 1000		< 50
O=S(=O)(c1ccc(Oc2cc(F)cc(F)c2)c2c1CC(O)C2)C(F)F (stereo not drawn) [Compound 22]			> 1000		250 to 1000
COc1cc(F)cc(Oc2ccc3c(c2Br)[C@@H](O)C(F)(F)S3(=O)=O)c1 [Compound 426]			250 to 1000		50 to 249
O=S(=O)(c1ccc(Oc2cc(F)cc(Cl)c2)c(Cl)c1CNCCF)C(F)(F)F [Compound 114]			> 1000		> 1000
CS(=O)(=O)c1ccc(Oc2cc(F)cc(Cl)c2)c(C(F)F)c1C#N [Compound 92]			250 to 1000		< 50
O=S(=O)(c1ccc(Oc2ccc(F)c(Cl)c2)c2c1[C@H](O)C(F)(F)C2)C(F)(F)F [Compound 221]			< 50		< 50
O=S(=O)(c1ccc(Oc2cc(F)cc(Cl)c2)c(Br)c1CNCc1ccccc1)C(F)(F)F [Compound 110]			> 1000		> 1000
O=S1(=O)CC(O)c2c1ccc(Oc1cc(F)cc(Cl)c1)c2C(F)F (stereo not drawn) [Compound 361]			250 to 1000		50 to 249

Structure (SMILES)	IC50 ([1]; Scintillation Proximity Assay IC50 (nM)) [nM]	EC50 (786-O cells) [nM]	EC50 (786-O-Hif-Luc cells; [2]) [nM]	EC50 (786-O-Hif-Luc cells; read-out: Mean Luciferase EC50 (nM)) [nM]	IC50 [1, 3] [nM]
O=S(=O)(c1ccc(OCCO)c2c1C(O)C(F)(F)C2)C(F)(F)F (stereo not drawn) [Compound 614]			> 1000		50 to 249
CC1(C)CC[C@@H](O)[C@H](c2ccc(S(=O)(=O)C(F)(F)F)c3c2CC(F)(F)[C@H]3O)C1 [Compound 547]			50 to 249		50 to 249
O[C@H]1c2c(C(F)(F)F)ccc(OC(F)F)c2CC1(F)F [Compound 670]			> 1000		> 1000
CC(=O)c1c(S(=O)(=O)C(F)(F)F)ccc(Oc2cc(F)cc(Cl)c2)c1Br [Compound 104]			> 1000		250 to 1000
O=S(=O)(CF)c1ccc(Oc2cccc3sccc23)c2c1C(O)C(F)(F)C2 (stereo not drawn) [Compound 242]			250 to 1000		50 to 249
CS(=O)(=O)c1ccc(O[C@H]2C[C@](C)(C#N)C2)c2c1[C@H](O)C(F)(F)[C@@H]2F [Compound 767]			> 1000		> 1000
CS(=O)(=O)c1ccc(O[C@H]2C[C@@](F)(C#N)C2)c2c1[C@H](O)C(F)(F)[C@@H]2F [Compound 739]			> 1000		< 50
CS(=O)(=NC#N)c1ccc(Oc2cc(F)cc(C#N)c2)c2c1[C@H](O)[C@H](F)C2 (stereo partly drawn) [Compound 302]			50 to 249		50 to 249
N#Cc1cc(F)cc(Oc2ccc(S(=O)(=O)CF)c3c2CC[C@H]3O)c1 [Compound 62]			50 to 249		< 50
O[C@H]1c2c(C(F)(F)F)ccc(OCC(F)F)c2[C@@H](F)C1(F)F [Compound 699]			50 to 249		< 50
CC(Oc1ccc(S(=O)(=O)C(F)(F)F)c2c1CC(F)(F)[C@H]2O)C1(C#N)CC1 (stereo partly drawn) [Compound 748]			250 to 1000		250 to 1000
O=S(=O)(c1ccc(Oc2cccc3[nH]ncc23)c2c1[C@H](O)C(F)(F)C2)C(F)(F)F [Compound 263]			250 to 1000		< 50
N#Cc1c(Oc2cc(F)cc(Cl)c2)ccc(S(=O)(=O)C(F)F)c1CO [Compound 35]			> 1000		> 1000
CC1(C)CC(c2ccc(S(=O)(=O)C(F)(F)F)c3c2CC(F)(F)[C@H]3O)=CC(O)C1 (stereo partly drawn) [Compound 551]			> 1000		50 to 249
CC(O)c1c(S(=O)(=O)C(F)(F)F)ccc(Oc2cc(F)cc(Cl)c2)c1Br (stereo not drawn) [Compound 103]			> 1000		250 to 1000
O=S(=O)(c1ccc(OCC(F)(F)F)c2c1[C@H](O)C(F)(F)C2)C(F)(F)F [Compound 675]			< 50		< 50
O=S(=O)(c1ccc(OCC2CC2)c2c1[C@H](O)C(F)(F)C2)C(F)F [Compound 781]			50 to 249		250 to 1000
N#Cc1cc(F)cc(Oc2ccc3c(c2C#N)[C@@H](O)CS3(=O)=O)c1 [Compound 416]			250 to 1000		> 1000
O=S(=O)(c1ccc(Oc2ccc(F)c(Cl)c2)c2c1C(O)CC2)C(F)(F)F (stereo not drawn) [Compound 218]			> 1000		250 to 1000
N#Cc1cccc(Oc2ccc(S(=O)(=O)C(F)(F)F)cc2Br)c1 [Compound 117]			> 1000		50 to 249
C[S+]([O-])c1ccc(Oc2cc(F)cc(C#N)c2)c2c1[C@H](O)C(F)(F)C2 (stereo partly drawn) [Compound 272]			> 1000		> 1000
N#Cc1cc(F)cc(Oc2ccc(S(=O)(=O)C(F)F)c3c2CC(F)(F)[C@H]3N)c1 [Compound 207]			250 to 1000		250 to 1000
N#Cc1cc(F)cc(Oc2ccc(S(=N)(=O)C(F)(F)F)c3c2CCC3O)c1 (stereo not drawn) [Compound 258]			> 1000		250 to 1000
Cc1cc(S(=O)(=O)C(F)F)ccc1Oc1cc(F)cc(Cl)c1 [Compound 135]			> 1000		250 to 1000
O=S1(=O)c2ccc(Oc3cccc4sccc34)c(C(F)F)c2C(O)C1(F)F (stereo not drawn) [Compound 440]			250 to 1000		< 50
O=S(=O)(c1ccc(OC2CCCC2)c2c1C(O)CC2)C(F)(F)F (stereo not drawn) [Compound 603]			> 1000		250 to 1000
CS(=O)(=O)c1ccc(OC[C@H]2C[C@H]2C#N)c2c1[C@H](O)C(F)(F)[C@@H]2F [Compound 765]			> 1000		250 to 1000
